Columns and labels:
[1] = test system: sweetpotato wounds inoculated with C. fimbriata; experiment: Promotion of wound-healing ability of sweetpotatoes (disease index after re-inoculation with C. fimbriata); format: in vivo, Xinxiang sweetpotatoes; Ceratocystis fimbriata; details: fumigation 30 h; spores applied on day 0, 1, 3, 5, 7 of healing; incidence counted after 7 days
Experimental: The effects of the combined reagents prepared by the method described in Embodiments 1-3 on promoting the wound-healing ability of sweetpotatoes are investigated, the method is as follows: […]
After the treatment, the fresh-keeping box is first ventilated, and the sweetpotatoes are transferred into a normal storage incubator (25° C., humidity 85%) for storage. During the storage of sweetpotatoes, 20 μL of fungus solution with a spore concentration of 10^6 spore/mL prepared in Embodiment 4 is evenly applied to the surface of the wounds on the 0th, 1st, 3rd, 5th and 7th day, respectively, the incidence of the disease after 7 days is counted and the disease index is calculated. […] The sweetpotatoes with perforation damage but without ClO2 treatment are used as the control group, and the disease index is calculated by the following formula: […]

[2] = test system: C. fimbriata; experiment: Inhibition of C. fimbriata in vitro (colony diameter on PDA plate after ClO2 fumigation); format: cell-based, Ceratocystis fimbriata; details: ClO2 fumigation 4 h, culture 15 d
Experimental: C. fimbriata preserved at −80° C. is thawed and resuscitated at 4° C., 200 μL C. fimbriata is taken into 15 mL PDA medium plates in the ultra-clean table and cultured at 28° C. for 7 d. After 7 d, 5 colonies of C. fimbriata are picked on the medium and inoculated into the expanding culture medium with an inoculation needle for further culture for 7 d. After 7 days, some of the expanding culture plates are used to prepare fungus pieces, and some plates are used to prepare spore suspension. […] The spore concentration is calculated by the blood cell counting plate, and adjusted to 10^6 spore/mL. […]
The expanding culture plate of C. fimbriata cultured in Embodiment 4 is selected, and the fungus piece is prepared by using a 10 mm sterile puncher, the fungus piece is reversely connected to the center of the PDA medium, and the PDA plate is placed in a 10 L fresh-keeping box, and the combined reagents prepared by the method described in Embodiments 1-3 are added, the plate is fumigated with ClO2 for 4 h, the culture plate is moved into a constant temperature incubator at 27° C. for 15 d after the treatment. The colony diameter of the culture plate is measured by the cross method every 3 days, the measurement is repeated three times, and the plate without ClO2 fumigation is used as the blank control.

[3] = test system: C. fimbriata in sweetpotato; experiment: Inhibitory effect on the growth of C. fimbriata in inoculated sweetpotato (lesion diameter and depth); format: in vivo, Ceratocystis fimbriata; Xinxiang sweetpotatoes; details: fumigation 30 h, storage 15 days at 25° C., humidity 85%
Experimental: C. fimbriata preserved at −80° C. is thawed and resuscitated at 4° C., 200 μL C. fimbriata is taken into 15 mL PDA medium plates in the ultra-clean table and cultured at 28° C. for 7 d. After 7 d, 5 colonies of C. fimbriata are picked on the medium and inoculated into the expanding culture medium with an inoculation needle for further culture for 7 d. After 7 days, some of the expanding culture plates are used to prepare fungus pieces, and some plates are used to prepare spore suspension. Sterile water is added into the culture plate, the mycelium is scraped and filtered through four layers of sterile gauze to remove the mycelium and medium impurities, and the spore suspension of C. fimbriata is obtained. The spore concentration is calculated by the blood cell counting plate, and adjusted to 10^6 spore/mL.
The inhibitory effect of the combined reagents prepared by the method described in Embodiments 1-3 on the growth of C. fimbriata in sweetpotato is investigated, the method is as follows: […]

For `[O][Cl+][O-]` [ClO2, chlorine dioxide], the “resistance to infection / wound healing of sweetpotatoes (disease index, in words)” value [1] was “after 5 days of healing can completely resist the infection of pathogenic fungus”, the “growth of C. fimbriata (in words)” value [2] was “directly inhibit the growth of C. fimbriata” and the “diameters and depths of the lesion of inoculated sweetpotatoes (in words)” value [3] was “decreases significantly with the increase of treatment concentration”.
